This is an account of results in PubChem BioAssay (NCI).

Among the test systems are CCRF-CEM leukemia; HCC-2998 colon; HOP-92 NSCLC; HS 578T breast; K-562 leukemia; NCI-H522 lung; SNB-19 CNS; SW-620 colon; TK-10 renal; UACC-257 melanoma.
Common to all, as to experiment: NCI tumour cell line growth inhibition, 48 h

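How tested: cells in 96-well plates exposed to compound for 48 hours at five concentrations. Abbreviation: GI50, concentration required for 50% inhibition of growth. TGI marks complete inhibition of growth.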

With `CN1CCN(C(=O)c2ccc(NC(=O)Nc3ccc(-c4nc(N5CCOCC5)c5cccn5n4)cc3)cc2)CC1`, the GI50 in the assay on CCRF-CEM leukemia is 0.0473 µM; in the assay on HCC-2998 colon, 0.0352 µM; in the assay on HOP-92 NSCLC, 0.0193 µM; in the assay with HS 578T breast it was 0.0177 µM; in the assay with K-562 leukemia it was 0.0963 µM; with NCI-H522 lung, 0.0357 µM. Moreover, the GI50 was 0.0363 µM in the assay on SNB-19 CNS, 0.0634 µM in the assay with SW-620 colon, 0.18 µM in the assay with TK-10 renal and 0.102 µM in the assay with UACC-257 melanoma. Besides, the TGI with CCRF-CEM leukemia was 5.67 µM; with HCC-2998 colon, 11.8 µM; in the assay on HOP-92 NSCLC, 0.0759 µM; in the assay with HS 578T breast it was 0.082 µM; in the assay on K-562 leukemia, 14.7 µM; in the assay on NCI-H522 lung, 16.9 µM. The TGI with SNB-19 CNS came out at 11.1 µM; with SW-620 colon, 12.1 µM; in the assay with TK-10 renal it was 0.874 µM; with UACC-257 melanoma, 0.576 µM.

`CCN1CCN(c2cc(C(=O)Nc3cccc(Nc4ccc5c(OC)cccc5n4)c3)cc(C(F)(F)F)c2)CC1`: the GI50 in the assay with CCRF-CEM leukemia is 0.758 µM; with HCC-2998 colon it was 0.72 µM; in the assay on HOP-92 NSCLC, 1.26 µM; in the assay with HS 578T breast, 3.61 µM; in the assay with K-562 leukemia it was 0.91 µM; in the assay on NCI-H522 lung, 1.01 µM. For the same compound, the GI50 in the assay with SNB-19 CNS was 2.1 µM; in the assay with SW-620 colon, 3.67 µM; with TK-10 renal it was 3.47 µM; in the assay with UACC-257 melanoma, 1.02 µM. Moreover, the TGI turned out to be 2.06 µM with CCRF-CEM leukemia; 2.01 µM with HCC-2998 colon; 4.66 µM in the assay on HOP-92 NSCLC; 11.9 µM with HS 578T breast; 2.77 µM in the assay on K-562 leukemia; 4 µM in the assay on NCI-H522 lung. In addition, the TGI in the assay on SNB-19 CNS amounted to 7.01 µM; with SW-620 colon it was 8.77 µM; in the assay on TK-10 renal, 8.02 µM; in the assay on UACC-257 melanoma, 3.6 µM.

For the compound `Nc1c(C(=O)c2cccc(C(O)CO)c2)cnn1-c1ccc(F)cc1` (stereo not drawn), the GI50 in the assay on CCRF-CEM leukemia, in the assay on HCC-2998 colon, with HOP-92 NSCLC, in the assay on HS 578T breast, with K-562 leukemia and in the assay with NCI-H522 lung was more than 25 µM each time. The GI50 with SNB-19 CNS, in the assay with SW-620 colon, in the assay with TK-10 renal and in the assay on UACC-257 melanoma was more than 25 µM in each case. For the same compound, the TGI in the assay on CCRF-CEM leukemia, in the assay on HCC-2998 colon, with HOP-92 NSCLC, with HS 578T breast, in the assay on K-562 leukemia and in the assay with NCI-H522 lung was more than 25 µM in each case. For the same compound, the TGI with SNB-19 CNS, in the assay on SW-620 colon, in the assay with TK-10 renal and with UACC-257 melanoma was more than 25 µM in each case.

`COC(=O)CC1(O)C=CC(=O)C=C1`: the TGI in the assay on CCRF-CEM leukemia was 6.11 µM; in the assay on HCC-2998 colon, 29.4 µM; in the assay on HOP-92 NSCLC, 22.6 µM; in the assay on HS 578T breast it was 39.4 µM; in the assay on K-562 leukemia, more than 100 µM; in the assay on NCI-H522 lung it was 4.04 µM. In addition, the TGI is 21.3 µM in the assay on SNB-19 CNS, 27.3 µM in the assay on SW-620 colon, 16 µM with TK-10 renal and 7.64 µM in the assay with UACC-257 melanoma.

Take `OCCCCC#Cc1ccccc1C#Cc1cccnc1`: the GI50 in the assay with CCRF-CEM leukemia is 33.9 µM; with HCC-2998 colon, 24.8 µM; in the assay with HOP-92 NSCLC, 38.2 µM; in the assay on HS 578T breast, 44.9 µM; in the assay with K-562 leukemia, 23.9 µM; with NCI-H522 lung, 41.9 µM. For the same compound, the GI50 in the assay on SNB-19 CNS was 49.3 µM; in the assay with SW-620 colon, 45.2 µM; with TK-10 renal, 26.9 µM; in the assay with UACC-257 melanoma, 25 µM. The TGI with CCRF-CEM leukemia was more than 100 µM; in the assay on HCC-2998 colon, 70.7 µM; in the assay with HOP-92 NSCLC it was more than 100 µM; in the assay on HS 578T breast, more than 100 µM; with K-562 leukemia, 71.1 µM; in the assay on NCI-H522 lung, more than 100 µM. Moreover, the TGI is more than 100 µM in the assay on SNB-19 CNS, more than 100 µM in the assay on SW-620 colon, 80.6 µM with TK-10 renal and 54.1 µM in the assay with UACC-257 melanoma.

With `Nc1nc(Cl)nc2c1ncn2C1OC(CO)C(O)C1F` (stereo not drawn), the TGI was 0.424 µM in the assay on CCRF-CEM leukemia; more than 68 µM in the assay with HOP-92 NSCLC; more than 80.7 µM in the assay on HS 578T breast; more than 100 µM in the assay on K-562 leukemia; more than 100 µM in the assay on NCI-H522 lung; more than 100 µM in the assay with SNB-19 CNS. Besides, the TGI with SW-620 colon was more than 100 µM; in the assay on TK-10 renal it was more than 83 µM; with UACC-257 melanoma it was more than 100 µM. Also, the GI50 is less than 0.0304 µM with HCC-2998 colon; 0.124 µM in the assay on HOP-92 NSCLC; 4.71 µM in the assay with HS 578T breast; 0.426 µM in the assay with K-562 leukemia; more than 68.2 µM in the assay on NCI-H522 lung; 0.191 µM in the assay with SNB-19 CNS. In addition, the GI50 is 0.839 µM with SW-620 colon, 0.55 µM with TK-10 renal and 4.17 µM with UACC-257 melanoma.

For the compound `FC(F)c1ncc(-c2ccc(C(F)(F)F)cc2)c(NC2CCCCCC2)n1`, the GI50 in the assay with CCRF-CEM leukemia, in the assay with HCC-2998 colon, with HOP-92 NSCLC, in the assay on HS 578T breast, with K-562 leukemia and with NCI-H522 lung was more than 10 µM each time. Also, the GI50 in the assay on SNB-19 CNS, in the assay with SW-620 colon, in the assay with TK-10 renal and in the assay with UACC-257 melanoma was more than 10 µM each time. Further, the TGI in the assay on CCRF-CEM leukemia, in the assay with HCC-2998 colon, with HOP-92 NSCLC, in the assay on HS 578T breast, with K-562 leukemia and in the assay with NCI-H522 lung was more than 10 µM in each case. Further, the TGI in the assay on SNB-19 CNS, in the assay with SW-620 colon, in the assay on TK-10 renal and with UACC-257 melanoma was more than 10 µM in each case.

`CN1CCN(Cc2ccc(NC(=O)c3[nH]ncc3Nc3ncnc4[nH]ccc34)cc2)CC1`: the GI50 in the assay with CCRF-CEM leukemia was 0.254 µM; with HCC-2998 colon, 0.367 µM; with HOP-92 NSCLC it was 0.431 µM; with HS 578T breast it was 0.197 µM; in the assay with K-562 leukemia, 0.265 µM; in the assay with NCI-H522 lung it was 0.283 µM. The GI50 was 0.373 µM in the assay on SNB-19 CNS, 0.381 µM in the assay with SW-620 colon, 0.562 µM in the assay on TK-10 renal and 0.531 µM in the assay with UACC-257 melanoma. Moreover, the TGI in the assay on CCRF-CEM leukemia is 5.68 µM; in the assay with HCC-2998 colon, 1.42 µM; in the assay with HOP-92 NSCLC, 0.741 µM; in the assay on HS 578T breast, 0.98 µM; in the assay with K-562 leukemia, more than 100 µM; in the assay with NCI-H522 lung, 1.63 µM. The TGI with SNB-19 CNS is 6.59 µM; in the assay on SW-620 colon it was 11.6 µM; with TK-10 renal, 2.37 µM; in the assay with UACC-257 melanoma, 17.8 µM.
